Assay results: patent publication US7557088B2, “Methods and compositions for treating conditions” (NeoPro Labs, LLC, priority 2006, dated 2009)
Where “and” joins values, the source holds several entries; their conditions need not be identical. Equal values may be shown once. Residues, ends and D or L forms follow the SMILES beside them. No end group written: not given here.

What was measured:
[1] = tested on: post-surgical pain in rats; assay: oral administration, von Frey withdrawal response after plantar incision; assay type: in vivo; conditions: for Withdrawal Response Post-Dose / Post-Dose change of pain threshold (arrow): morphine sulfate 3.7 mg/kg; for Withdrawal Response Post-Dose: peptides 100 mg/kg; for Withdrawal Response Post-Surgery: 150 min after surgery, before dosing; for Withdrawal Response Pre-Surgery: baseline 15 min pre-surgery; for Post-Dose change of pain threshold (arrow): peptides 100 mg/kg oral; for effect when administered with aspirin / effect when administered with Naloxone / effect on pain threshold: oral; for effect when administered with aspirin: ASA 1 mg/kg co-administered (Groups 4, 6, 9); for effect when administered with Naloxone: Naloxone 2 mg/kg co-administered (Groups 3, 5, 8); for effect on pain threshold: with 0.9% saline as Treatment 1 (Groups 2, 7, 10)
Description: Table VI below illustrates results from the oral administration of SEQ ID NO: 1 and SEQ ID NO: 153 and the effects of Naloxone and aspirin on their ability to decrease the pain threshold.
In this experiment animals were weighed and placed in the group numbers designated on the left hand column. Each group is composed of 10 rats. Animals were anesthetized with 1.8 to 4% isofluorane (delivered via a nose cone) and each received an intramuscular injection of penicillin (30,000 IU) in the triceps muscle after preparation of the foot with betadine and alcohol (SOPs VET-1 and VET-8). A 1 cm long incision of skin and fascia was made in the plantar aspect (heel, midfoot or distal pad area) of the right hind paw. No underlying muscle was incised. After hemostasis with gentle pressure, the incision was closed with one or two sutures (5-0 silk/nylon ophthalmic suture on a taper TF needle or equivalent). The wound site was covered with a mixture of polymixin B, neomycin, and bacitracin ointment. After surgery, rats were allowed to recover in their cages until behavioral testing. Prior to surgery, rats were placed individually on an elevated wire mesh floor covered with a clear plastic cage top and allowed to acclimate. Baseline pain behavior was measured as follows: Withdrawal responses to mechanical stimulation were determined using von Frey filaments applied from underneath the cage through openings (12×12 mm in the plastic mesh floor to an area adjacent to the intended incision). Each von Frey filament (Target force of 0.008 g to 300 g) was applied once starting with 0.008 g filament and continuing until a withdrawal response occurred or 300 g force was reached. The median force producing a response, determined from three tests given over a 10-min period was considered the withdrawal threshold. Rats were tested for responses 15 minutes pre-surgery, 150 minutes after surgery, and 20 minutes after treatment. Oral treatments 1 and 2 were co-administered 180 minutes after surgery. The test article/vehicle administration and pain measurements were as per Table below.
As illustrated by Table VI, SEQ ID NOs: 1 and 153 attenuate sensitization to von Frey mechanical stimuli after oral application. The response to the von Frey monofilament is in gram. Arrow up (1) indicates an increase in the pain threshold and arrow down (1) indicates a decrease in the threshold. Zero indicates no change.

[2] = solubility of test article in 0.9% saline; assay type: physicochemical; conditions: 100 mg/mL: 1.4 mL of saline added to 141.5 mg, room temperature
Procedure: The test article was SEQ ID NO: 1, a white powder, which was delivered in 0.9% saline. The test article formulations were prepared on the day of study and kept at room temperature until dosing. 100 mg/kg at 1 mL/kg=100 mg/mL 1.4 mL of saline added to 141.5 mg of test article, soluble.

[3] = feeding behavior of rats exposed to high levels of the peptide; assay type: in vivo; conditions: at least 3 days
Description: Pain is basically managed by two classes of drugs. […] The peptide has no anti-inflammatory properties and this differentiates it pharmacologically from analgesics in the NSAID's.

[4] = tested on: Pseudomonas syringae pv tomato, DC3000; assay: systemic resistance of Arabidopsis plants to a virulent bacterial pathogen; assay type: in vivo, Arabidopsis ecotype Columbia (Col-0); conditions: 20 μl salicylic acid 1 mM and 20 μl SEQ ID NO: 15 applied to the leaves
Procedure: Seeds of Arabidopsis ecotype Columbia (Col-0) were planted in potting soil. Plants were cultivated in a growth chamber with 10-h d (200 μmol m^−2s^−1 at 22° C.) and 14-h night (18° C.) cycles and 80% RH. Once a week plants were supplied with water and modified one-half strength Hoagland nutrient solution: 2 mM KNO 5 mM Ca(NO3)2 and trace elements, pH 7.
A virulent plant pathogen, Pst Pseudomonas syringae pv tomato, DC3000 was grown at 28° C. on King's medium B containing 40 mg/L tetracycline. Plants were inoculated with 1×10^7 cfu/ml of the pathogen in 0.01% Silwet L77 (v/v) (a surfactant) and distilled water 5 weeks after sowing. The bacterial suspension or a control solution (0.01% Silwet L77 in water) was then sprayed on the plant once.
Disease symptoms in Arabidopsis are water-soaked, spreading lesions, sometimes surrounded by chlorotic margin that eventually lead to yield loss and plant death.
To test the efficacy of SEQ ID NO: 15, some healthy and some disease plants were sprayed with salicylic acid in 0.01%. Silwet L77; some healthy and some disease plants were sprayed with SEQ ID NO: 15 in 0.01%. Silwet L77, and some healthy and some disease plants were sprayed with salicylic acid in combination with SEQ ID NO: 15 in 0.01%. Silwet L77. A control group of some healthy and some disease plants were sprayed with water in 0.01%. Silwet L77. […]

[5] = tested on: Sauromatum guttatum appendix; assay: heat production by Sauromatum guttatum appendix sections treated with 2,6-dihydroxybenzoic acid (2,6-DHBA); conditions: second experiment, application up to 50 μM, data not shown
Procedure: In one example, using Sauromatum guttatum as the experimental module, on the day of inflorescence-opening, the Sauromatum appendix (a 20-40 cm-long, slender organ) becomes warm, reaching a 32° C. temperature (Skubatz et al., 1991, Plant Physiol. 95-1084-1088). The heat generated by the appendix is generated by the mitochondria. This mitochondrial activity can be triggered by the addition of phenolic compounds, including but not limited to, salicylic acid, aspirin, and 2,6-dihydroxybenzoic acid. Test agents can be applied to the plant and the plant's temperature may be monitored in vivo.
FIG. 6 illustrates modulation of heat generated by 2,6-dihydroxybenzoic acid in the presence of the Alzheimer's peptide, Aβ 1-42, SEQ ID NO: 49 and a plant gene derived sequence in the Sauromatum guttatum appendix. One day before heat-production, sections of the appendix were placed in different solutions containing 2,6-dihydroxybenzoic acid (2,6-DHBA) with or without SEQ ID NO: 2 (FLPSEFGVDVDR) and SEQ ID NO: 51. Heat-production was monitored with thermocouples attached to the sections. A section placed in distilled water that was not generated any heat is the control (water). […] The temperature was recorded every 5 min. […] This figure illustrates that these peptides modulate thermogenicity in plants as well as animals and act as mitochondrial modulators.

opioid receptor = assay: mechanism of action with Naloxone, antagonist of the opioid receptors (oral pain study); design: species or system rats; conditions: inferred from in vivo Naloxone co-administration, no binding test
Procedure: When Naloxene was administered with SEQ ID NO: 153 (Group 8), the effects of SEQ ID NO: 153 were reduced (compare Group 8 to Group 10) but unlike the case of Morphine (Group 3), not completely eliminated.

[6] = 20 min after oral treatment, co-administered ASA 1 mg/kg
[7] = 20 min after oral treatment, co-administered Naloxone 2 mg/kg
[8] = group later given Treatment 1 0.9% Saline + Treatment 2
[9] = group later given Treatment 1 ASA 1 mg/kg + Treatment 2
[10] = group later given Treatment 1 Naloxone 2 mg/kg + Treatment 2
[11] = group later given Treatment 1 0.9% Saline 2 mL/kg + oral Treatment 2 (morphine sulfate 3.7 mg/kg or peptide 100 mg/kg)
[12] = co-administered Naloxone 2 mg/kg

Compound | Withdrawal Response Post-Dose [1, 6] | Withdrawal Response Post-Dose [1, 7] [g] | Withdrawal Response Post-Surgery [1, 8] | Withdrawal Response Post-Surgery [1, 9] [g] | Withdrawal Response Post-Surgery [1, 10] [g] | Withdrawal Response Pre-Surgery [1, 11] [g] | Withdrawal Response Pre-Surgery [1, 9] [g] | Withdrawal Response Pre-Surgery [1, 10] [g] | Post-Dose change of pain threshold (arrow) [1, 12] | effect when administered with aspirin [1] | effect when administered with Naloxone [1] | effect on pain threshold [1] | systemic resistance to the virulent bacteria [4] | further results
CN1CC[C@]23c4c5ccc(O)c4O[C@H]2[C@@H](O)C=C[C@H]3[C@H]1C5.O=S(=O)(O)O [Morphine sulfate, reference compound] | 5.5 ± 0.80 g | 3.5 ± 0.24 | 3.8 ± 0.52 g | 4.3 ± 0.41 | 3.7 ± 0.39 | 30.4 ± 3.29 | 21.9 ± 2.13 | 28.5 ± 4.53 | 0 | aspirin reduced the effects of Morphine | the effect of Morphine is eliminated | the pain threshold is increased | – | Withdrawal Response Post-Dose ([1]; 20 min after oral treatment at 180 min after surgery, Treatment 1 0.9% Saline 2 mL/kg, listed as Morphine, sulfate): 6.6 g; Withdrawal Response Post-Dose ([1]; 20 min after oral treatment at 180 min after surgery, Treatment 1 0.9% Saline 2 mL/kg, sulfate): 6.6 ± 1.58 g
CC(C)C[C@H](NC(=O)[C@@H](N)Cc1ccccc1)C(=O)N1CCC[C@H]1C(=O)N[C@@H](CO)C(=O)O [SEQ ID NO: 1, Phe-Leu-Pro-Ser] (H-FLPS-OH; N-terminus and C-terminus assumed) | – | – | – | – | – | – | – | – | – | – | – | – | – | solubility in saline [2]: soluble; feeding behavior [3]: did not invoke an abnormal feeding behavior
O=C(O)c1ccccc1O [salicylic acid] | – | – | – | – | – | – | – | – | – | – | – | – | enough to trigger systemic resistance | –
FLPSEFGVDVDR [SEQ ID NO: 2] | – | – | – | – | – | – | – | – | – | – | – | – | – | heat generation by the peptide [5]: did not generate heat
SPLF [SEQ ID NO: 153] | 5.7 g and 5.7 ± 0.56 g | 4.7 ± 0.45 | 4.5 g and 4.5 ± 0.32 g | 4.7 ± 0.56 | 4.5 ± 0.55 | 28.1 ± 3.02 | 29.2 ± 3.21 | 29.3 ± 4.00 | 0 | improved effect | reduced | increases the pain threshold | – | Withdrawal Response Post-Dose ([1]; 20 min after oral treatment at 180 min after surgery, Treatment 1 0.9% Saline 2 mL/kg): 5.0 g and 5.0 ± 0.41 g; Post-Dose change of pain threshold (arrow) ([1]; Treatment 1 0.9% Saline 2 mL/kg): 0; binding to the opioid receptor relative to Morphine and Naloxone (opioid receptor): binds to the opioid receptor more tightly than Morphine, but less tightly than Naloxene
YGGFL [SEQ ID NO: 15] | – | – | – | – | – | – | – | – | – | – | – | – | enough to trigger systemic resistance | –
